Measurements published in publication PMC7125519 (European Journal of Medicinal Chemistry, 2016).

Experiments:
[1] = system: human embryonic lung (HEL) cells; conditions: HEL cell cultures (Table 5); microscopically detectable alteration of normal cell morphology
[2] = system: human cervix carcinoma (HeLa) cells; conditions: read-out: IC50 HeLa; inhibit cell proliferation by 50%; cited from earlier work
[3] = system: murine leukemia (L1210) cells; conditions: read-out: IC50 L1210; inhibit cell proliferation by 50%; cited from earlier work
[4] = system: human T-lymphocyte (CEM) cells; conditions: read-out: IC50 CEM; inhibit cell proliferation by 50%; cited from earlier work
[5] = system: immortalized human dermal microvascular endothelial cells (HMEC-1); assay: Cytostatic activity, HMEC-1 proliferation; assay type: cell-based; conditions: HMEC-1, read-out: IC50 HMEC-1, inhibit cell proliferation by 50%
TK+ VZV Oka strain = assay type: cell-based, varicella-zoster virus
TK− VZV 07-1 strain = assay type: cell-based, varicella-zoster virus
Human Coronavirus (229E) = assay type: cell-based; conditions: read-out: Antiviral activity EC50 Human Coronavirus (229E)

Q: With `Nc1nc(O)c2ncn(COC(CO)CO)c2n1` [Ganciclovir] as the molecule, how does the Minimum cytotoxic concentration [1] read?
A: >100 µM

Q: For `CCOP(=O)(OCC)[C@H]1C[C@@H](Cn2ccc(=O)n(C(=O)c3ccccc3)c2=O)ON1C` [cis-11a], which IC50 [2] is on record?
A: > 200 µM

Q: And the IC50 [3]?
A: > 200 µM

Q: And the IC50 [4]?
A: > 200 µM

Q: For `CCOP(=O)(OCC)[C@@H]1C[C@@H](Cn2c(=O)n(C(=O)c3ccccc3)c(=O)c3ccccc32)ON1C` [trans-12a], which IC50 [3] is on record?
A: ≥ 159 µM

Q: For `CCOP(=O)(OCC)[C@@H]1C[C@@H](Cn2c(=O)n(C(=O)c3ccccc3)c(=O)c3ccccc32)ON1Cc1ccccc1` (relative stereo) [trans-13a, Diethyl trans-{5-[(3-benzoyl-2,4-dioxo-3,4-dihydroquinazolin-1(2H)-yl)methyl]-2-benzylisoxazolidin-3-yl}phosphonate], which IC50 [5] is on record?
A: > 250 µM

Q: With `Cc1cn([C@H]2C[C@H](F)[C@@H](CO)O2)c(=O)[nH]c1=O` [Alovudine] as the molecule, how does the Minimum cytotoxic concentration [1] read?
A: >250 µM

Q: What does the source list for `CCOP(=O)(OCC)[C@@H]1C[C@@H](Cn2ccc(=O)n(C(=O)c3ccccc3)c2=O)ON1C` [trans-11a]?
A: IC50 [2]: > 200 µM; IC50 [3]: > 200 µM; IC50 [4]: > 200 µM

Q: Which Minimum cytotoxic concentration [1] does the source give for `Nc1ccn(C[C@@H](CO)OCP(=O)(O)O)c(=O)n1.O.O` [Cidofovir] here?
A: >250 µM

Q: Which Minimum cytotoxic concentration [1] does the source give for `Nc1nc2c(ncn2COCCO)c(=O)[nH]1` [Acyclovir] here?
A: >250 µM

Q: With `CCOP(=O)(OCC)C1CC(Cn2c(=O)n(Cc3ccccc3F)c(=O)c3ccccc32)ON1Cc1ccccc1` (stereo not drawn) [cis-15b/trans-15b (87:13)] as the molecule, how does the “fold less active against the TK+ virus compared to acyclovir” value (TK+ VZV Oka strain) read?
A: 4–6 fold

Q: What about the “fold more active against the TK– strain compared to acyclovir” value (TK− VZV 07-1 strain) of the same molecule?
A: 10–14 fold

Q: For `Nc1ccn([C@H]2CC[C@@H](CO)O2)c(=O)n1` [Zalcitabine], which Minimum cytotoxic concentration [1] is on record?
A: >250 µM

Q: With `CCOP(=O)(OCC)[C@@H]1C[C@@H](Cn2c(=O)n(C(=O)c3ccc(F)cc3)c(=O)c3ccccc32)ON1C` (relative stereo) [trans-12d, Diethyl trans-{5-[(3-(4-fluorobenzoyl)-2,4-dioxo-3,4-dihydroquinazolin-1(2H)-yl)methyl]-2-methylisoxazolidin-3-yl}phosphonate] as the molecule, how does the Minimum cytotoxic concentration [1] read?
A: ≥100 ± 0 µM

Q: What about the IC50 [5] of the same molecule?
A: > 250 µM

Q: Which “fold less active against the TK+ virus compared to acyclovir” value (TK+ VZV Oka strain) does the source give for `CCOP(=O)(OCC)C1CC(Cn2c(=O)n(Cc3ccc(F)cc3)c(=O)c3ccccc32)ON1Cc1ccccc1` (stereo not drawn) [trans-15d/cis-15d (95:5)] here?
A: 4–6 fold

Q: What about the “fold more active against the TK– strain compared to acyclovir” value (TK− VZV 07-1 strain) of the same molecule?
A: 10–14 fold

Q: Which Minimum cytotoxic concentration [1] does the source give for `NC(=O)c1ncn([C@@H]2O[C@H](CO)[C@@H](O)[C@H]2O)n1` [Ribavirin] here?
A: ≥250 µM

Q: For `CCOP(=O)(OCC)[C@H]1C[C@@H](Cn2c(=O)n(C(=O)c3ccccc3)c(=O)c3ccccc32)ON1C` [cis-12a], which IC50 [2] is on record?
A: > 200 µM

Q: And the IC50 [3]?
A: > 200 µM

B1: UDA: Urtica dioica agglutinin (UDA), reference compound (protein, UniProt P11218 24-372, looked up)
Lectin/endochitinase 1: QRCGSQGGGGTCPALWCCSIWGWCGDSEPYCGRTCENKCWSGERSDHRCGAAVGNPPCGQDRCCSVHGWCGGGNDYCSGSKCQYRCSSSVRGPRVALSGNSTANSIGNVVVTEPLFDQMFSHRKDCPSQGFYSYHSFLVAAESFPAFGTIGDVATRKREVAAFLAHISQATSGERSDVENPHAWGLCHINTTTVTENDFCTSSDWPCAAGKKYSPRGPIQLTHNFNYGLAGQAIGEDLIQNPDLVEKDPIISFKTALWFWMSQHDNKPSCHDIVLNANSAANRIPNKGVIGNIISRAFGHDDFAVRSSSIGFYKRYCDMLGVSYGHDLKYWFDNTPSSEFQRIQMRVAA
Q: Which EC50 (Human Coronavirus (229E)) does the source give for B1 here?
A: 0.4 µM

Q: And the Minimum cytotoxic concentration [1]?
A: ≥100 µM
